Laboratory results published in PMC9900783 (bioRxiv, 2023).
Like-named read-outs stand apart in the source and are kept apart here.

Tests used:
Type in all cases: biochemical
Nape-pld [1] = molecular target: T1, Nape-pld (Mus musculus, UniProt Q8BH82); assay: fluorogenic PED-A1 hydrolysis assay, activation; conditions: read-out: EC50 μM^b (95% CI)
NAPE-PLD [2] = molecular target: NAPE-PLD (Homo sapiens, UniProt Q6IQ20); assay: recombinant human enzyme, PED-A1 fluorogenic assay, activation
Nape-pld [3] = molecular target: T1, Nape-pld; assay: fluorogenic PED-A1 hydrolysis assay, activation; conditions: read-out: EC50 μM^b (95% CI); remark: listed apart in the source
[4] = molecular target: T2, soluble epoxide hydrolase (sEH) (Homo sapiens, UniProt P34913); assay: sEH activity assay kit
T2 sequence (P34913 1-555): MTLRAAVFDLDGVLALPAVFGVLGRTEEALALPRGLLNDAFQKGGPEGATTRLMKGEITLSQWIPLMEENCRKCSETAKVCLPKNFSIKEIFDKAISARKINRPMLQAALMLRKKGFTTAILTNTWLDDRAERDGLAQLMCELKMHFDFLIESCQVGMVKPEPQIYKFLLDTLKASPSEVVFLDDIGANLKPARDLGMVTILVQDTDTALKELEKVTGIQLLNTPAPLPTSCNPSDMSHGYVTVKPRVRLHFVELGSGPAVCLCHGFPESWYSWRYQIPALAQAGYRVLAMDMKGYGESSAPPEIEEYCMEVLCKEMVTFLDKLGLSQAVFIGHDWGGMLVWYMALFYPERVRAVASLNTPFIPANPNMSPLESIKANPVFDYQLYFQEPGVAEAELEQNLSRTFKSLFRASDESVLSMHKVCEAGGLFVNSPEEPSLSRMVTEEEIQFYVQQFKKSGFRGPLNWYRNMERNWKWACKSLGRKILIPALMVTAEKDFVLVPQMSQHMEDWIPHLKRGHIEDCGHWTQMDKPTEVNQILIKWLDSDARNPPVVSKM

Nape-pld [5] = molecular target: T1, Nape-pld; assay: fluorogenic PED-A1 hydrolysis assay, activation; conditions: read-out: EC50 μM^b (95% CI); remark: listed apart in the source

T1 sequence (Q8BH82 whole entry): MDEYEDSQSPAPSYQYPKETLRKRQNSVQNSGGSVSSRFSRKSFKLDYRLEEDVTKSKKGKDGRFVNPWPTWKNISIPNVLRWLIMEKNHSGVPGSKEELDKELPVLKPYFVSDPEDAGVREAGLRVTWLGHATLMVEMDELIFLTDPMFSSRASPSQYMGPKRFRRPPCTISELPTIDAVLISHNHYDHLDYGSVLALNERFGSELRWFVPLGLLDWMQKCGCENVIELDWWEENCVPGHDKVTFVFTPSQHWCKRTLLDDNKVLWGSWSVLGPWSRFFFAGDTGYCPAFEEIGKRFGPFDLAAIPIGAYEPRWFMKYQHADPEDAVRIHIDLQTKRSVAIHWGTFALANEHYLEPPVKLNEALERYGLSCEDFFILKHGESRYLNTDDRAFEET
NAPE-PLD, sequence (Q6IQ20 whole entry): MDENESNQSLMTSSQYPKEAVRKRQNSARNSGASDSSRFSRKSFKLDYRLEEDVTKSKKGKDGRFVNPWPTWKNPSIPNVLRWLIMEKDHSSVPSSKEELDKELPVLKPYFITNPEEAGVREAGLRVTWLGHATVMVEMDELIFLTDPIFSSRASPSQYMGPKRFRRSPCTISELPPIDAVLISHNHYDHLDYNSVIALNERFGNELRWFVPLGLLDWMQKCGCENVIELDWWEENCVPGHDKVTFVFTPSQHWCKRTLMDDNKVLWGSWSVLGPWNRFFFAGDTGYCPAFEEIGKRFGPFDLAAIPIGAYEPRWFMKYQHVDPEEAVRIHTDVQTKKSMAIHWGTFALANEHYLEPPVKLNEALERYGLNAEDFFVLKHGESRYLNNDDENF

| Compound | EC50 (Nape-pld [1]) [µM] | EC50 (NAPE-PLD [2]) [nM] | EC50 (Nape-pld [3]) [µM] | IC50 [4] [nM] | EC50 (Nape-pld [5]) [µM] |
| --- | --- | --- | --- | --- | --- |
| Cc1ccc(C)c2sc(NC(=O)C3CCN(S(=O)(=O)c4ccc(F)cc4)CC3)nc12 [compound 9, VU533] | 0.3 | 200 |  |  |  |
| Cc1ccc2nc(NC(=O)C3CCN(S(=O)(=O)c4ccc(Cl)cc4)CC3)sc2c1 [compound 5, VU539] |  |  | 0.74 |  |  |
| Cc1cc(C)c2sc(NC(=O)C3CCN(S(=O)(=O)c4ccc(F)cc4)CC3)nc2c1 [compound 8, VU534] |  | 930 |  | 1200 | 0.3 |
| Cc1ccc2nc(NC(=O)C3CCN(S(=O)(=O)c4ccc(F)cc4)CC3)sc2c1 [compound 3, VU486] |  |  | 0.32 |  |  |
